In brackets after ≈: the same amount, converted by molar mass.
Key:
Format in all cases: cell-based
[1] = system: Stachybotrys chartarum; test: Fungus resistance test after painting over fungal growth (defacement rating); settings: painting over contaminated surfaces; paints containing 100 μg/mL; after 7 days
Excerpt: In this series of experiments, fungal growth was allowed to cover a painted surface (surface containing 2 coats of the unaltered paint) to a defacement rating of 3-5, forming a ‘contaminated surface’. […] The paint application was extended approximately 1-2 cm beyond the edge of the disc onto the NSA medium. Each formulation used a separate brush to avoid cross contamination. The re-painted discs were placed back into the humid environment with elevated temperature to encourage fungal growth.
This test was used to evaluate the ability of paint films containing antifungal additives to prevent the re-emergence of fungal growth after painting over existing growth.
Olympic® Home interior flat latex paint (PPG Industries, Pittsburgh, Pa.) and Valspar® QuikHide White flat interior paint (Valspar Corporation, Minneapolis, Minn.) were used for the experiments in this study unless specified. Stock solutions of the antifungal additives of interest were prepared in reagent grade dimethyl sulfoxide (DMSO; Alfa Aesar, Ward Hill, Mass.). Additives were spiked (by adding appropriate amounts of the antifungal stock solutions) into the liquid paint at specified concentrations. Samples of additive-spiked paint were vigorously mixed with a vortex mixer for at least one minute to insure uniform dispersion of the additive in the paint. […] Studies that used other brands of paint followed the same protocol as described for those using the Olympic® Home interior flat latex paint.
Test surfaces were prepared in triplicate. In most cases, the tested conditions were repeated on a different date, again in triplicate. […] Two coats of paint were applied with a polyester brush to completely cover both faces of the filter paper disc, allowing at least four hours drying time between coats.
Nutrient-Salts Agar (NSA) media was prepared according to ASTM method G21-13 in 100×15 mm sterile polystyrene petri dishes (VWR® Radnor, Pa.) with a solidified agar layer from 3 to 6 mm (⅛ to ¼ in.) in depth. The agar was allowed to solidify for at least 24 hours before being used. The painted test filter paper discs were placed in the center of the agar plates in a biosafety hood while wearing clean nitrile gloves.
The paint coatings were evaluated against three representative fungi: Stachybotrys chartarum, Penicillium chrysogenum, and Alternaria alternata. […] Fungal isolates of Alternaria alternata and Penicillium chrysogenum were obtained from the Plant Pathology and Environmental Microbiology Department at Penn State University.
A spore suspension of each of these fungi was prepared by pouring a 20-mL portion of autoclaved deionized water containing 0.01% Tween® 20 onto a subculture of each fungal species. Spores were counted with the use of a hemocytometer (Hausser Scientific, Horsham, Pa.) under a microscope. Spore suspensions of Stachybotrys chartarum and Penicillium chrysogenum were diluted to 1×10^6 spores/mL with autoclaved deionized water. Spore suspensions of Alternaria alternata were used “as is” in the range of 200,000 to 400,000 spores/mL.
Painted test surfaces were inoculated with a spray bottle or with a cotton-tipped applicator. To inoculate the sample with a spray bottle, the spore suspension was sprayed twice on the painted test discs with a spray bottle that delivered approximately 0.14 g of fluid per spray. To inoculate the sample with a cotton-tipped applicator, an autoclaved cotton-tipped applicator was submerged in approximately 400 μL of the inoculum solution and applied evenly over the surface of the painted test surface twice.

[2] = system: Stachybotrys chartarum; test: 3 day MIC, broth microdilution in 25% PDB; settings: 72 h, 25% PDB, read-out: 3 day MIC
Procedure: (§1) Stock solutions (concentrations of between 4,000 μg/mL to 10,000 μg/mL; stored at −18° C.) of the above antifungals were prepared in dimethyl sulfoxide (DMSO). The stock solutions were further diluted into sterile 25% potato dextrose broth (PDB) so that the diluted solutions could be used for the antifungal susceptibility studies. This way, a typical microdilution study would reach a final ratio of about 0.5-2% v/v of DMSO in 25% PDB.
(§2) Spore inocula were prepared in sterile distilled water with 0.1% Tween® 20 (a polysorbate surfactant), and a hemocytometer was used to determine the spore density. Typically, the spore inoculum was prepared fresh prior to each study, and the inoculum was appropriately diluted to a final concentration of 0.4-1×10^5 spores/mL or colony-forming unit (CFU)/mL in each study. The spore suspension can be stored in a refrigerator at 4° C. for up to one week.
(§3) The studies were performed in flat bottom, 96-well microtiter plates (Greiner Bio-One, Frickenhausen, Germany).
(§4) Plates sealed with clear polyester film (VWR, Radnor, Pa.) were incubated at a temperature of about 25° C. The progress of fungal growth was monitored at 48 hours and 72 hours.

[3] = system: Alternaria alternata; test: 3 day MIC, broth microdilution in 25% PDB; settings: 72 h, 25% PDB, read-out: 3 day MIC
Procedure: as §1, §2, §3, §4

[4] = system: Aureobasidium pullulans; test: 3 day MIC, broth microdilution in 25% PDB; settings: 72 h
Procedure: as §1, §2
(§5) The minimal inhibitory concentrations (MICs) for individual antifungal agents were determined by following a modified broth microdilution protocol CLSI (Clinical and Laboratory Standards Institute) M38-A2 [Clinical and Laboratory Standards Institute (2008) Reference method for broth dilution antifungal susceptibility testing of filamentous fungi—2nd edition: Approved Standard M38-A2, CLSI, Wayne, Pa.] where 25% potato dextrose broth (PDB) was used as the medium. The studies were performed in flat bottom, 96-well microtiter plates (Greiner Bio-One, Frickenhausen, Germany).
as §4

[5] = system: Mucor spp.; test: 3 day MIC, broth microdilution in 25% PDB; settings: 72 h
Procedure: as §1, §2, §5, §4

[6] = system: Fusarium oxysparum ST-33; test: 3 day MIC, broth microdilution in 25% PDB; settings: ST33, 72 h
Procedure: as §1, §2, §5, §4

[7] = system: Aspergillus niger; test: 3 day MIC, broth microdilution in 25% PDB; settings: 72 h
Procedure: as §1, §2, §5, §4

[8] = system: Aspergillus fumigatus; test: 3 day MIC, broth microdilution in 25% PDB; settings: 72 h
Procedure: as §1, §2, §5, §4

[9] = system: Rhizopus spp.; test: 3 day MIC, broth microdilution in 25% PDB; settings: 72 h
Procedure: as §1, §2, §5, §4

[10] = system: Aspergillus flavus; test: 3 day MIC, broth microdilution in 25% PDB; settings: 72 h
Procedure: as §1, §2, §5, §4

[11] = system: Penicillium chrysogenum; test: 3 day MIC, broth microdilution in 25% PDB; settings: 72 h, 25% PDB, read-out: 3 day MIC
Procedure: as §1, §2, §3, §4

[12] = system: Penicillium brevicompactum; test: 3 day MIC, broth microdilution in 25% PDB; settings: 72 h, 25% PDB, read-out: 3 day MIC
Procedure: as §1, §2, §3, §4

[13] = system: Penicillium corylophilum; test: 3 day MIC, broth microdilution in 25% PDB; settings: 72 h, 25% PDB, read-out: 3 day MIC
Procedure: as §1, §2, §3, §4

[14] = system: Penicillium purpurogenum; test: 3 day MIC, broth microdilution in 25% PDB; settings: 72 h; Penicillium purpurogenum; 25% PDB; read-out: 3 day MIC
Procedure: as §1, §2, §3, §4

MIC [2]	MIC [3]	MIC [4]	MIC [5]	MIC [6]	MIC [7]	MIC [8]	MIC [9]	MIC [10]	MIC [11]	MIC [12]	MIC [13]	MIC [14]	SMILES	ability to inhibit Stachybotrys chartarum re-emergence on the surfaces [1]
64 µg/mL (≈ 430 µM)	200 µg/mL (≈ 1340 µM)	> 64 µg/mL	> 64 µg/mL	> 64 µg/mL	> 64 µg/mL	> 64 µg/mL	> 64 µg/mL	> 64 µg/mL	–	–	–	–	Nc1ccc2c(c1)COB2O [Compound B6, 5-Amino-1,3-dihydro-2,1-benzoxaborol-1-ol]	very little ability to inhibit
25 µg/mL (≈ 153 µM)	> 200 µg/mL	–	–	–	–	–	–	–	–	–	–	–	Nc1ccc2c(c1)B(O)OCC2 [Compound B7, 7-amino-3,4-dihydro-1H-2,1-benzoxaborinin-1-ol]	very little ability to inhibit
100 µg/mL (≈ 562 µM)	200 µg/mL (≈ 1120 µM)	–	–	–	–	–	–	–	> 200 µg/mL	> 200 µg/mL	> 200 µg/mL	> 200 µg/mL	O=C(O)c1ccc2c(c1)COB2O [Compound B10, 1-hydroxy-1,3-dihydro-2,1-benzoxaborole-5-carboxylic acid]	–
12.5 µg/mL (≈ 78.6 µM)	100 µg/mL (≈ 629 µM)	–	–	–	–	–	–	–	100 µg/mL (≈ 629 µM)	50 µg/mL (≈ 315 µM)	100 µg/mL (≈ 629 µM)	25 µg/mL (≈ 157 µM)	N#Cc1ccc2c(c1)COB2O [Compound B11, 1-hydroxy-1,3-dihydro-2,1-benzoxaborole-5-carbonitirile]	–
